One block for each compound: values may come before it.
Columns and labels:
[1] = test system: Human umbilical vein endothelial cells (HUVECs), tumour type activated endothelial cells; assay: Proliferation assay - activated endothelium (MTT); format: cell-based; settings: for potency against activated (tumor) versus quiescent (normal) endothelial cells: activated compared with quiescent endothelial cells; for IC50: Homo sapiens, HUVEC, tumour type activated endothelial cells (HUVECs), 48 hrs, read-out: HUBECs Tum: IC50
Experimental: Proliferation Assay—Activated Endothelium:
(§1) Human umbilical vein endothelial cells (CC-2519, Clonetics) were plated at 2500 cells/well in EGM2 (CC-3162, Clonetics) in a 96 well plate in triplicate. Cells were cultured overnight at 37° C. 5% CO2. Medium was subsequently replaced with fresh medium including the compound or negative control. Cells were cultured for a period of 48 hrs. An MTT assay was performed to measure changes in cell numbers. Briefly, 20 μl of MTT reagent was added to cells containing 100 μl of EGM2 and incubated at 37° C. for 2 hours. Absorbance was measured at 492 nm.

MCF-7 = assay: Growth inhibition of cancer cell line (Sulforhodamine B or Systmex cell counting assay); format: cell-based; settings: Homo sapiens, MCF7, concentration required to inhibit net cell growth by 50%
[2] = test system: Human umbilical vein endothelial cells (HUVECs), normal quiescent type endothelial cells; assay: Proliferation assay - quiescent endothelium (MTT); format: cell-based; settings: HUVEC, 48 hrs, read-out: HUBECs Norm: IC50
Experimental: Proliferation Assay—Quiescent Endothelium:
as §1, with “15000” for “2500”, “EBM2 (CC-3156, Clonetics)+0.5% FBS (CC-4101A, Clonetics)+GA-1000 (CC-4381A,” for “EGM2 (CC-3162,”, “EBM2+0.5% FBS” for “EGM2”

tubulin = assay: Tubulin polymerization inhibition; format: biochemical
[3] = test system: MDA-MB-231 solid orthotopic tumours; assay: Tumour growth inhibition, single agent; format: in vivo, Balb/c nu/nu mice; settings: Example 2 40 mg/kg i.v., two cycles; vs vehicle; significant from day 4 (p<0.001) through Day 70
Experimental: Balb/c nu/nu mice bearing MDA-MB-231 solid orthotopic tumours were treated with compound Example 2 at 40 mg/kg. Animals were i.v. dosed with a total of two cycles of Example 2 treatment. Each cycle was dosing on […] followed by a three week no-dosing period. Tumour growth represented as a ratio to initial tumour volume is shown over a total of 72-days.
Tumour growth as well as animal health were monitored for up to 72 days post-day 1 of treatment. […] Significant differences in tumour growth between Example 2 treated (n=64) and vehicle treated (n=20) animals were observed as early as day 4 (p<0.001; unpaired t-test; Prism® analysis) through to Day 70.

[4] = test system: cisplatin resistant A2780Cis solid orthotopic tumours; assay: Tumour growth inhibition, combination with carboplatin and gemcitabine; format: in vivo, Balb/c nu/nu mice; settings: Example 2 24 mg/kg + carboplatin 50 mg/kg + gemcitabine 12.5 mg/kg i.v.; triplet compared to carboplatin/gemcitabine doublet; up to 21 days
Experimental: (a) Example 2 Treatment in Combination with Carboplatin (Combination Partner (b)) and Gemcitabine (Combination Partner (c)).
Balb/c nu/nu mice bearing cisplatin resistant A2780Cis solid orthotopic tumours were treated with compound Example 2 at 24 mg/kg, carboplatin at 50 mg/kg and gemcitabine at 12.5 mg/kg. Animals were i.v. dosed with a single dose of carboplatin, two weekly doses of Example 2 and two weekly doses of gemcitabine. Each cycle of Example 2 and gemcitabine was dosing on days 1 and 8; and each cycle of carboplatin was dosing on day 1.
Tumour growth as well as animal health were monitored for up to 21 days post-day 1 of treatment.

recurrent ovarian cancer = assay: Phase I clinical trial: objective response (CA125 or RECIST); format: in vivo, female ovarian cancer subjects (patients); settings: combination with carboplatin and gemcitabine
Excerpt: (§2) A standard 3+3 Phase I design was used to determine the recommended dose of compound Example 2 with combination partners (b) and (c). In addition, this design also facilitated the determination of secondary endpoints including progression-free survival (PFS) and adverse event rates. Further correlative endpoints that measure the effect of the drug combination on compound Example 2 pharmacokinetics (PK) were also captured in this trial design.
(§3) The patient cohort selected for this Phase I clinical trial were female ovarian cancer subjects with a PFS interval of ≧4 months after first or second line platinum-based chemotherapy.
(§4) The dosing regime is outlined in FIG. 4. This protocol included compound Example 2 escalation at 12 or 16 mg/m^2 IV on days 2 and 9, carboplatin AUC4 on day 1, gemcitabine escalation 800 and 1000 mg/m^2 days 1 and 8. Treatment proceeded across a 21 day cycle for a maximum of 6 cycles. Treatment was followed by single agent maintenance with compound Example 2 at 16 mg/m^2 for a maximum of 6 additional cycles.
(§5) The key outcomes of this trial include the identification of the maximum tolerated dose (MTD) of compound Example 2 and combination partners (b) and (c), dose limiting toxicities and patient response measured according to CA125 levels or RECIST. Additional plasma biomarker studies that measure concentrations of ferritin, interleukin-8, interleukin-16 and macrophage inflammatory protein-1β provide correlative data relating to the PK of compound Example 2.

[5] = Phase I clinical trial: dose limiting toxicities, adverse events, recommended dose; format: in vivo, female ovarian cancer subjects (patients)
Excerpt: as §2, §3, §4, §5

[6] = Dose level 1 (n = 6), combination with carboplatin and gemcitabine, all cycles
[7] = Dose level 2a (n = 3), combination with carboplatin and gemcitabine, all cycles
[8] = Dose level 2b (n = 60 as printed), combination with carboplatin and gemcitabine, all cycles

SMILES: COc1ccc(/C=C\c2cc(OC)c(OC)c(OC)c2)cc1O [Combretastatin A4]
potency against activated (tumor) versus quiescent (normal) endothelial cells [1]: equally potent against quiescent and activated endothelial cells

SMILES: COc1ccc(/C=C\c2cc(OC)c(OC)c(OC)c2)cc1O [Comparator A]
IC50 (MCF-7): 5 nM
IC50 [2]: 1 to 10 nM
IC50 [1]: 1 to 10 nM

SMILES: COc1ccc(/C=C\c2cc(OC)c(OC)c(OC)c2)cc1OP(=O)(O)O [Comparator B]
IC50 (MCF-7): 5 nM
IC50 [2]: 1 to 10 nM
IC50 [1]: 1 to 10 nM

SMILES: COc1ccc2c(C(=O)c3cc(OC)c(OC)c(OC)c3)coc2c1 [Comparator C]
IC50 (MCF-7): 55 nM
IC50 [2]: 10 to 100 nM
IC50 [1]: 10 to 100 nM

IC50 (MCF-7): 500 nM
SMILES: COc1ccc2c(C(=O)c3cc(OC)c(OC)c(OC)c3)c(Br)oc2c1 [Comparator D]
IC50 [2]: 100 to 1000 nM
IC50 [1]: 100 to 1000 nM

IC50 (MCF-7): 2 nM
SMILES: COc1cc(C(=O)c2c(C)oc3c(O)c(OC)ccc23)cc(OC)c1OC [Example 1, 2-Methyl-7-hydroxy-3-(3,4,5-trimethoxybenzoyl)-6-methoxybenzofuran]
IC50 [2]: 10 to 100 nM
tubulin polymerization inhibition (tubulin): potent tubulin polymerization inhibitor
IC50 [1]: 0.1 to 1 nM
potency against activated (tumor) versus quiescent (normal) endothelial cells [1]: high potency towards tumor endothelial cells (activated) over normal endothelial cells (quiescent)

SMILES: COc1cc(C(=O)c2c(C)oc3c(OP(=O)([O-])[O-])c(OC)ccc23)cc(OC)c1OC.[Na+].[Na+] [Example 2, Disodium 6-methoxy-2-methyl-3-(3,4,5-trimethoxybenzoyl)benzofuran-7-yl phosphate]
Tumour growth (ratio to initial tumour volume) [3]: tumour growth inhibition
Tumour growth (tumor volume) [4]: tumour growth inhibition
Objective responses (CA125 or RECIST) % (recurrent ovarian cancer; Dose level 1, 6 accrued): 68%
Objective responses (CA125 or RECIST) N (recurrent ovarian cancer; Dose level 1, 6 accrued): 4
Objective responses (CA125 or RECIST) % (recurrent ovarian cancer; Dose level 2a, 3 accrued): 33%
Objective responses (CA125 or RECIST) N (recurrent ovarian cancer; Dose level 2a, 3 accrued): 1
Objective responses (CA125 or RECIST) % (recurrent ovarian cancer; Dose level 2b, 6 accrued): 83%
Objective responses (CA125 or RECIST) N (recurrent ovarian cancer; Dose level 2b, 6 accrued): 5
Objective responses (CA125 or RECIST) % (recurrent ovarian cancer; all dose levels, 15 accrued): 68%
Objective responses (CA125 or RECIST) N (recurrent ovarian cancer; all dose levels, 15 accrued): 10
Hypertension Gr 3 [5, 6]: 1
Neutropenia Gr 3 [5, 6]: 3
Neutropenia Gr 4 [5, 6]: 2
Number of DLTs ([5]; Dose level 1: Example 2 12 mg/m2 + carboplatin AUC4 + gemcitabine 800 mg/m2, 6 patients): 1
Hypersensitivity Gr 3 [5, 7]: 1
Neutropenia Gr 3 [5, 7]: 1
Neutropenia Gr 4 [5, 7]: 2
Thrombocytopenia Gr 4 [5, 7]: 2
Number of DLTs ([5]; Dose level 2a: Example 2 16 mg/m2 + carboplatin AUC4 + gemcitabine 800 mg/m2, 3 patients): 2
Anaemia Gr 3 [5, 8]: 1
Neutropenia Gr 3 [5, 8]: 5
Thrombocytopenia Gr 3 [5, 8]: 2
adverse events or dose limiting toxicities ([5]; Dose level 2b: Example 2 12 mg/m2 + carboplatin AUC4 + gemcitabine 1000 mg/m2): no adverse events or dose limiting toxicities were observed
Number of DLTs ([5]; Dose level 2b: Example 2 12 mg/m2 + carboplatin AUC4 + gemcitabine 1000 mg/m2, 6 patients): 0
safety and tolerability ([5]; combination with combination partners (b) carboplatin and (c) gemcitabine, subjects with recurrent ovarian cancer): safe and tolerable
recommended dose ([5]; with carboplatin AUC4 and gemcitabine 1000 mg/m^2 (dose level 2b)): 12 mg/m^2

— patent publication US20170119727A1, “A THERAPEUTIC PROTOCOL FOR TREATING OVARIAN CANCER” (Bionomics Limited, priority 2014, published 2017)
